The source of these data is PMC8624523, “Novel GPR120 Agonists with Improved Pharmacokinetic Profiles for the Treatment of Type 2 Diabetes” (Molecules, 2021).

The target of data set [1] is T1, human GPR120 (Homo sapiens, UniProt Q5NUL3).
T1 construct: expressed in transfected cells
T1 sequence (Q5NUL3 1-361): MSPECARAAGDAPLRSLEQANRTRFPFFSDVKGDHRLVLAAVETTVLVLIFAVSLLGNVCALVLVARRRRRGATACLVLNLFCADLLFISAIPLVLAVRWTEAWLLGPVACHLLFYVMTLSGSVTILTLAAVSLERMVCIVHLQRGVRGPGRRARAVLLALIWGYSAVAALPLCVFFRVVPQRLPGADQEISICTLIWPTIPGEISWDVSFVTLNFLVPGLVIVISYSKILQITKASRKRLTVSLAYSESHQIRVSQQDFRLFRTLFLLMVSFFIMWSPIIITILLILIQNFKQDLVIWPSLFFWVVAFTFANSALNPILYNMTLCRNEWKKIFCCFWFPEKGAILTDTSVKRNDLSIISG
As to the kind of experiment: Ca2+ influx assay in CHO cells stably expressing human GPR120. The class given is cell-based. As to conditions: CHO cells expressing human GPR120, Ca2+ signal, mean of three determinations. The protocol: Chinese hamster ovary (CHO) cells stably expressing human GPR120 were suspended in growth media at a concentration of 1 × 10^6 per mL. […] The cell plate was removed from the incubator, the medium was gently discarded, and the wells were washed with 100 μL of Hank’s balanced salt solution (HBSS) per well. The cells were then incubated in HBSS containing fluorescent calcium indicator Fluo-4 AM (2.5 μg/mL) and probenecid (2.5 mmol/L) for 90 min. […] The test compounds at various concentrations were added to the cells, and intracellular Ca^2+ concentrations were measured using FlexStation3 Molecular Devices. The GPR120 agonistic activities of the test compounds were expressed as A/B (increase in the intracellular Ca^2+ concentration (A) in the test compound-treated cells and (B) in vehicle-treated cells). The EC50 value of each compound was calculated using Prism software (version 5.0; GraphPad Software, San Diego, CA, USA).

Data set [2] deals with T2, hGPR40 (Homo sapiens, UniProt O14842).
T2 construct: expressed in transfected cells; host or cells: CHO cells
As to the kind of experiment: Calcium influx assay on hGPR40-expressing CHO cells. Format: cell-based. As to conditions: for Selectivity: GPR40 EC50 over GPR120 EC50; for EC50: hGPR40-expressing CHO cells, calcium influx, mean of three determinations, read-out: GPR40 (EC50).

The target of data set [3] is T2, hGPR40. On the set-up: method as in PMID 22519963, PMID 29100735, PMID 28642104, PMID 28947942, PMID 28374589. As to conditions: cited from earlier work.
Data set [4] concerns hGPR120. On the set-up: method as in PMID 22519963, PMID 29100735, PMID 28642104, PMID 28947942, PMID 28374589. As to conditions: Figure 1, literature values; cited from earlier work.
In data set [5] the test system is normal ICR mice. As to the kind of experiment: Oral glucose tolerance test in normal ICR mice. As to conditions: fasted ICR mice. The class given is in vivo. The protocol:
Male ICR starved overnight (12 h) were weighed and randomly divided into six groups (eight mice per group). […] Blood samples were collected via the tail tip before drug administration (-30 min), before glucose loading (time 0), and 15, 30, 60, and 120 min after glucose loading. Blood glucose levels were measured using blood glucose test strips (Sannuo GA-3 type, Changsha, China).

Data set [6] deals with DIO mice. The experiment in a line: Anti-hyperglycemic effects (oGTT) in diet-induced obese (DIO) mice. Format: in vivo, C57BL/6 mice. As to conditions: fasted DIO mice, 20 mg/kg gavage 30 min before oral glucose 2 g/kg. From the text:
After 1 week of adaptation, male C57BL/6 mice weighing 18–22 g, were fed a high-fat diet (45% calories from fat, from Mediscience Ltd., Yangzhou, China) ad libitum for an additional 8 weeks to induce insulin resistance. […] Blood samples were collected and measured in accordance with the oral glucose tolerance test in normal ICR mice.

Data set [7] can be described thus: Pharmacokinetic analysis in C57BL/6 mice after gavage administration. Format: in vivo. As to conditions: male, mouse, plasma, po, 10 mg/kg gavage, 0.5% MC; for AUC / Cmax / half-life: mean ± SEM of four mice. The protocol: Plasma was collected with a pipette and the proteins in the plasma were precipitated with two volumes of acetonitrile containing an internal standard. This was followed by centrifugation at 15.680 g for 10 min after vortexing for 5 min. The supernatant was diluted with acetonitrile and 10 μL of supernatant was analyzed by Waters LC-PDA-MS/MS to determine plasma drug levels. Pharmacokinetic parameters were determined using the mean data from four mice at each time point. Statistical analysis of the data was performed using the DAS 2.1.1 statistical software program (BioVoice, Shanghai, China).

Read-outs that look alike come from different tables or passages of the source.

T2 sequence (O14842 whole entry): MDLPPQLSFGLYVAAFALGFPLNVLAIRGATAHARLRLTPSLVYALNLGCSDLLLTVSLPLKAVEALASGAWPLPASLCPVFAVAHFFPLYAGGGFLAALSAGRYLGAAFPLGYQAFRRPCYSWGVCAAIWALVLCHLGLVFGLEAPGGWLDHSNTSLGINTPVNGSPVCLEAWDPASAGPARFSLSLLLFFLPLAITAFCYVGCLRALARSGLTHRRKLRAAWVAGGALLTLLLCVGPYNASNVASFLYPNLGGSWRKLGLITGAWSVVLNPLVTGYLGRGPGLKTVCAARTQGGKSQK

The term melting point denotes the temperature, or range, at which the solid turns liquid. In general, EC50 refers to the concentration giving half of the maximal effect. Molecule `COc1ccc2c(c1)CCCN2C(=O)COc1ccc(OCC(=O)O)c(C)c1` [Compound 11h, 2-(4-(2-(6-Methoxy-3,4-dihydroquinolin-1(2H)-yl)-2-oxoethoxy)-2-methylphenoxy)acetic acid] displayed a melting point of 141 to 142 °C. In data set [1], this molecule gave a 50% effective concentration (EC50) of 146 nM.
The molecule `CC(CC(=O)O)c1ccc(OCC(=O)N2CCCc3ccccc32)cc1` (stereo not drawn) [Compound 11a, 3-(4-(2-(3,4-Dihydroquinolin-1(2H)-yl)-2-oxoethoxy)phenyl)butanoic acid] had a melting point of 117 to 118 °C. For the same molecule, the 50% effective concentration (EC50) in data set [1] worked out at 113 nM.
`Cc1ccc(-c2ccc(F)cc2COc2ccc(C(C)CC(=O)O)cc2)cc1` (stereo not drawn) [Compound 2f, 3-(4-((4-Fluoro-4′-methyl-[1,1′-biphenyl]-2-yl)methoxy)phenyl)butanoic acid] showed a melting point of 100 to 101 °C. In data set [2], the Selectivity amounted to 1373 and the EC50 worked out at 72500 nM. This molecule yielded a concentration giving a half-maximal response (EC50) in data set [1] of 52.8 nM.
With `COc1ccc2c(c1)CCCN2C(=O)COc1ccc(C(C)CC(=O)O)cc1` (stereo not drawn) [Compound 11c, 3-(4-(2-(6-Methoxy-3,4-dihydroquinolin-1(2H)-yl)-2-oxoethoxy)phenyl)butanoic acid], the melting point fell in the range of 141 to 142 °C. In data set [1], this molecule showed a concentration for a half-maximal effect (EC50) of 99.6 nM.
The molecule `Cc1ccc(-c2ccc(F)cc2COc2ccc(CCC(=O)O)c(F)c2)cc1` [Compound 4f, 3-(2-Fluoro-4-((4-fluoro-4′-methyl-[1,1′-biphenyl]-2-yl)methoxy)phenyl)propanoic acid] gave a melting point of 101 to 102 °C. For the same molecule, it took 110 nM to reach a half-maximal effect in data set [1] (EC50).
On to `O=C(O)CCc1cc(F)c(OCc2c(-c3ccc(Cl)cc3F)nsc2C(F)(F)F)c(F)c1` [Compound 3], for which the 50% effective concentration (EC50) was greater than 5000 nM in data set [3] (Figure 1, literature value) and 42 nM in data set [4].
Molecule `Cc1cc(OCC(=O)N2CCCc3cc(F)ccc32)ccc1OCC(=O)O` [Compound 11f, 2-(4-(2-(6-Fluoro-3,4-dihydroquinolin-1(2H)-yl)-2-oxoethoxy)-2-methylphenoxy)acetic acid] registered a melting point of 152 to 153 °C. Besides, the EC50 in data set [1] came out at 204 nM.
As to `Cc1ccc(-n2nc(C)c3cnc(-c4ccc([C@H]5C[C@@H]5C(=O)O)cc4)cc32)nc1` [Compound 4], the EC50 in data set [3] (Figure 1, literature values) is greater than 100000 nM; in data set [4], 740 nM.
In the case of `Cc1ccc(-c2ccc(F)cc2COc2ccc(CCC(=O)O)c(C)c2)cc1` [Compound 3f, 3-(4-((4-Fluoro-4′-methyl-[1,1′-biphenyl]-2-yl)methoxy)-2-methylphenyl)propanoic acid], the melting point is 116 to 117 °C. The same molecule came in with a 50% effective concentration (EC50) in data set [1] of 90.2 nM.
For `Cc1ccc(-c2ccc(F)cc2COc2ccc(OCC(=O)O)cc2)cc1` [Compound 5f, 2-(4-((4-Fluoro-4′-methyl-[1,1′-biphenyl]-2-yl)methoxy)phenoxy)acetic acid], in that order: 119 to 120 °C and 103 nM.
On the same counts, the results for `Cc1ccc(-c2ccc(F)cc2COc2ccc(OCC(=O)O)c(F)c2)cc1` [Compound 7f, 2-(2-Fluoro-4-((4-fluoro-4′-methyl-[1,1′-biphenyl]-2-yl)methoxy)phenoxy)acetic acid] are 109 to 110 °C and 106 nM.
On the same counts, the results for `Cc1ccc(-c2ccc(F)cc2COc2ccc(CC(C)C(=O)O)cc2)cc1` (stereo not drawn) [Compound 1f, 3-(4-((4-Fluoro-4′-methyl-[1,1′-biphenyl]-2-yl)methoxy)phenyl)-2-methylpropanoic acid] are 103 to 104 °C and 146 nM.
For the molecule `O=S1(=O)c2ccccc2CN1c1cc(F)cc(Oc2ccccn2)c1` [Compound 6], the hGPR40 activity result in data set [3] (at 100 uM, Figure 1, literature value) was “inactive”. In data set [4], the EC50 is 123 nM.
As a reminder, the Tmax is the time from dosing to the highest level. What is called AUC is the area under the concentration-time curve, a measure of exposure. Low readings indicate low exposure, high ones high exposure. By Cmax is commonly meant the highest concentration seen after dosing. By half-life is commonly meant the time needed for the level to fall by half in the phase considered. The low end stands for rapid decline, the high end for slow decline. Regarding `Cc1ccc2c(c1)CCCN2C(=O)COc1ccc(C(C)CC(=O)O)cc1` (stereo not drawn) [Compound 11b, 3-(4-(2-(6-Methyl-3,4-dihydroquinolin-1(2H)-yl)-2-oxoethoxy)phenyl)butanoic acid], the melting point was 115 to 116 °C. Besides, in data set [2], the Selectivity is on record as 1159 and the EC50 was found to be 82500 nM. The EC50 in data set [1] came to 71.2 nM. Also, the “anti-hyperglycemic effects compared with TUG-891” value in data set [5] (30 mg/kg, at 30 min after the oral glucose challenge) is given as “better than TUG-891”. For the same molecule, the hypoglycemia result in data set [5] (dose of 100 mg/kg by gavage) was “no hypoglycemia was observed”. For the same molecule, in data set [5] (gavage 20 mg/kg 30 min before oral glucose 3.0 g/kg), the “blood glucose during oGTT” value is recorded as “significantly reduced blood glucose”. Also, the “blood glucose levels during oGTT” value in data set [5] (gavage 10, 20, 30 and 100 mg/kg 30 min before oral glucose 3.0 g/kg) is given as “lowered the blood glucose levels in a dose-dependent manner”. In data set [6], the “anti-diabetic effects (blood glucose during oGTT)” value is reported as “equivalent to TUG-891” and the “insulin levels at 30 min after oral administration of glucose” value is reported as “significantly increased insulin levels”. In addition, in data set [7], the Tmax was 0.5 h, the AUC was found to be 9050 ± 435 ng·h/mL, the highest level (Cmax) was 2530 ± 115 ng/mL and the half-life is 1.78 ± 0.42 h.
`Cc1cc(OCC(=O)N2CCCc3ccccc32)ccc1OCC(=O)O` [Compound 11e, 2-(4-(2-(3,4-Dihydroquinolin-1(2H)-yl)-2-oxoethoxy)-2-methylphenoxy)acetic acid]: the melting point is 138 to 139 °C. Further, in data set [1], a half-maximal effect (EC50) was put at 255 nM.
As for `Cc1ccc2c(c1)CCCN2C(=O)COc1ccc(OCC(=O)O)c(C)c1` [Compound 11g, 2-(2-Methyl-4-(2-(6-methyl-3,4-dihydroquinolin-1(2H)-yl)-2-oxoethoxy)phenoxy)acetic acid], the melting point lay in the range of 147 to 148 °C. Further, in data set [2], the Selectivity is reported as 1036 and the concentration for a half-maximal effect (EC50) is 86400 nM. In data set [1], this molecule returned a 50% effective concentration (EC50) of 83.4 nM. In data set [7], the time to peak (Tmax) was 0.5 h, the area under the curve (AUC) was determined as 6710 ± 467 ng·h/mL, the concentration peaked (Cmax) at 1850 ± 102 ng/mL and the half-life was 1.52 ± 0.37 h.
As to `CC(CC(=O)O)c1ccc(OCC(=O)N2CCCc3cc(F)ccc32)cc1` (stereo not drawn) [Compound 11d, 3-(4-(2-(6-Fluoro-3,4-dihydroquinolin-1(2H)-yl)-2-oxoethoxy)phenyl)butanoic acid], the melting point was 124 to 130 °C. Besides, the concentration for a half-maximal effect (EC50) in data set [1] was found to be 187 nM.
Molecule `Cc1ccc(-c2ccc(F)cc2COc2ccc(OCC(=O)O)c(C)c2)cc1` [Compound 6f, 2-(4-((4-Fluoro-4′-methyl-[1,1′-biphenyl]-2-yl)methoxy)-2-methylphenoxy)acetic acid] displayed a melting point of 115 to 116 °C. Also, in data set [2], the Selectivity stood at 810 and the concentration giving a half-maximal response (EC50) worked out at 58900 nM. Also, a half-maximal effect in data set [1] (EC50) was put at 72.7 nM.
Take `CO[C@H]1C[C@H](Oc2cc(F)c(F)c(-c3c(F)cc(OCCCC(=O)O)cc3F)c2)C1` [Compound 5]: the concentration giving a half-maximal response (EC50) is greater than 100000 nM in data set [3] (Figure 1, literature values) and 93 nM in data set [4].
